Measured values as given in US20130123168A1, “HUMANIN AND HUMANIN-ANALOGUES FOR THE MANAGEMENT OF ATHEROSCLEROSIS” (The Regents of the University of California, priority 2011, published 2013).
Entries after “also recorded” stand apart in the source; their conditions may differ.

Columns and labels:
NIT cells = details: cited from earlier work
[1] = tested on: atherosclerotic plaques in proximal aorta; test: Morphometric analysis of plaque size in proximal aorta cross sections; type: in vivo, mice; details: IP 0.4 mg/kg/day, 16 weeks
[2] = tested on: atherosclerotic plaque in the aortic arch; test: TUNEL staining of apoptotic cells in plaques of the aortic arch; type: in vivo; details: Group 4: ApoE-deficient mice, high cholesterol diet
Description: The effect of HNGF6A on mice was studied in 4 different animal groups (n=12 per group); Group 1: C57BL/6 feed normal diet+intraperitoneal (IP) saline, Group 2: C57BL/6 feed normal diet+IP HNGF6A, Group 3: ApoE-deficient feed high cholesterol diet+IP saline, and Group 4: ApoE-deficient feed high cholesterol diet+IP HNGF6A (Group 4). Experiment was conducted over the course of 16 weeks. Female C57BL/6 mice and Apo E-deficient mice were obtained at the age of 4 weeks from Jackson Laboratory Animals had free access to water, were maintained at 24° C., and kept at a 12 hr light/dark cycle. Depending on the study group, the mice were treated with a normal diet or high cholesterol diet (HC, 0.15% cholesterol and 42% milk fat by weight, TD88137 or “Western diet”; Harlan Teklad) and received intraperitoneal injection (IP) of saline or HNGF6A (glycine variant of HN, 0.4 mg/kg/day, Peptide International, Louisville, Ky.) for 16 weeks. […] Blood samples were collected by cardiac puncture. Terminal deoxynucleotidyl transferase dUTP nick end labeling (TUNEL) was performed using the in situ Apoptosis Detection Kit (S7100-KIT; Chemicon). The procedure was performed following the manufacturers' protocol. […] The number of positive cells in atherosclerotic plaque was counted using x400 magnification. […] Data was expressed as mean±SEM. […]

[3] = tested on: human aortic endothelial cells (HAECs); test: TUNEL assay of Ox-LDL induced apoptosis in HAEC; type: cell-based; details: pre-incubated overnight with 0.1 μM, then 100 μg/ml Ox-LDL for 6 hours
Description: To accomplish this, a TUNEL assay was applied to measure the levels of apoptosis in HAECs treated with or without HN prior to exposure with Ox-LDL (FIG. 2). HAECs were plated on glass cover slips and incubated overnight with or without added HN (0.1 μM). The cells were then exposed to Ox-LDL (100 μg/ml; Biomedical Technologies Inc.) for 6 hours at 37° C. in the absence of HN. Apoptotic cells were quantified by TUNEL assay using the In Situ Death Detection Kit® (Roche Applied Science), mounted in SlowFade containing DAPI (Invitrogen) and observed by flourescent microscope. Apoptotic cells were defined based in morphological changes in the nuclei and the fluorescent intensity after TUNEL staining. The apoptotic index (AI)=(number of apoptotic cells)/(total number of cells)

[4] = tested on: human aortic endothelial cells (HAECs); test: Ox-LDL induced ROS production, dihydroethidium (DHE) fluorescence; type: cell-based
Description: Prior studies have reported that treatment of vascular endothelial cells with oxidized low density lipoprotein (LDL) stimulates reactive oxygen species (ROS) formation. To test whether humanin (HN) affects Ox-LDL induced ROS production in endothelial cells, the fluorescent probe dihydroethidium was utilized in order to detect superoxide in living cells. DHE fluorescence was measured in human aortic endothelial cells (HAECs) preincubated with HN and subsequently exposed to Ox-LDL. Intracellular ROS production was monitored by following the conversion of the oxidant sensitive dye dihydroethidine to fluorescent ethidium.
To accomplish this, as described in Bachar et al. (2010) Cardiovasc. Res. 88(2):360-6 (incorporated by reference in its entirety). […] Fluorescent images were then taken with an inverted fluorescent microscope (Olympus IX70) at 15× magnification using appropriate filters fro ethidium fluorescence. Ten to twelve non-overlapping images in each culture dish were acquired and quantified by image analysis using Metamorph software (Molecular Devices). Only those cells whose fluorescence exceeded twice the basal level of fluorescence of non-treated cells were used for quantification of DHE fluorescence. Values are expressed as average relative fluorescence units for n≧100 cells per experimental condition in 2 independent experiments. […]

[5] = tested on: human aortic endothelial cells (HAECs); test: Cellular ceramide levels by HPLC/MS/MS after Ox-LDL; type: cell-based; details: 0.1 μM overnight, then Ox-LDL 100 μg/ml for 6 hours
Description: HAECs were plated on glass cover slips and incubated overnight with or without added HN (0.1 μM). The cells were then exposed to Ox-LDL (100 μg/ml; Biomedical Technologies Inc.) for 6 hours. Cells were then scraped into PBS, pelleted and frozen in liquid nitrogen. These samples were sent to MUSC-lipidomics core (Lipidomics Analytical Unit) for processing to detect and quantify individual ceramide species by HPLC/MS/MS.

F6AK21A-HNG: SEQ ID NO:17 MAPRGASCLLLLTGEIDLPVARRA (listed as Homo sapiens)
potency compared to humanin in promoting survival and activating STAT-3 and ERK (NIT cells): even greater potency

HNGF6A: HN analogue, SEQ ID NO:16 MAPRGASCLLLLTGEIDLPVKRRA (listed as Homo sapiens)
potency compared to humanin in promoting survival and activating STAT-3 and ERK (NIT cells): even greater potency | presence of plaque in aorta ([1]; Group 2: C57BL/6 mice, normal diet, 0.4 mg/kg/day): Plaques were not visible; also recorded: no plaque was apparent | plaque size ([1]; Group 4: ApoE-deficient mice, high cholesterol diet): 0.01±0.003 mm^2 | numbers of apoptotic cells in plaques compared to Group 3 (in words) ([2]; IP): significantly decreased | number of apoptotic cells in plaques in the aortic arch ([2]; IP 0.4 mg/kg/day, 16 weeks, mean±SEM): 84±17 cells/mm^2

Z-FIN: SEQ ID NO:18 MAKRGLNCLPHQVSEIDLSVQKRI (listed as Homo sapiens)
potency compared to humanin in promoting survival and activating STAT-3 and ERK (NIT cells): two-fold greater potency than humanin

humanin (MAPRGFSCLLLLTSEIDLPVKRRA; listed as Homo sapiens) [HN]
relative decrease in apoptosis compared to cells without pretreatment [3]: more than 50% | decrease in ROS production ([4]; HN pretreatment overnight prior to Ox-LDL (100 μg/ml, 30 min) exposure): approximately 50% | decrease in Ox-LDL induced ROS formation, dose dependence ([4]; HN titration): dose-dependent manner | total cellular amount of ceramides, including C16-ceramide [5]: decrease
